Measured values published in ChEMBL document CHEMBL1201862, “PubChem BioAssay data set” (2004).
Several values for one entry are separate records, joined by “and”; a condition that tells them apart may be missing. Equal values may be shown once.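 Protocol summary: plate cells (96-well), add compound at 5 concentrations, incubate 48 h, interpolate endpoints linearly. GI50 is the concentration that inhibits growth by half.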 Activity calls are given as the source filed them. Cut-off read from the data, not from the text of the source: active = GI50 up to about 1.1 µM and inactive = higher.

Tests used:
Experiment in all cases: DTP human tumour cell line panel, 48 h
[1] = tested on: 786-0
[2] = tested on: A549
[3] = tested on: BT-549
[4] = tested on: COLO 205
[5] = tested on: DU-145
[6] = tested on: EKVX
[7] = tested on: HCC 2998
[8] = tested on: HCT-116
[9] = tested on: HCT-15
[10] = tested on: HL-60
[11] = tested on: HOP-62
[12] = tested on: HT-29
[13] = tested on: Hs-578T
[14] = tested on: MDA-MB-231
[15] = tested on: MDA-MB-435
[16] = tested on: NCI-H522
[17] = tested on: OVCAR-4
[18] = tested on: RPMI-8226
[19] = tested on: SK-MEL-28
[20] = tested on: UACC-257

Row | SMILES | GI50 [1] | GI50 [2] | GI50 [3] | GI50 [4] | GI50 [5] | GI50 [6] | GI50 [7] | GI50 [8] | GI50 [9] | GI50 [10] | GI50 [11] | GI50 [12] | GI50 [13] | GI50 [14] | GI50 [15] | GI50 [16] | GI50 [17] | GI50 [18] | GI50 [19] | GI50 [20]
1 | C[C@H]1CCC/C=C/[C@@H]2C[C@H](OC3OC(CO)C(O)C(O)C3O)C[C@H]2[C@H](O)/C=C/C(=O)O1 (stereo partly drawn) | 36.7 µM (inactive) | 88.7 µM (inactive) | > 100 µM (inactive) | 17.2 µM (inactive) | > 100 µM (inactive) | > 100 µM (inactive) | 29.7 µM (inactive) | 77.8 µM (inactive) | 72.3 µM | > 100 µM (inactive) | > 100 µM (inactive) | 33.2 µM (inactive) | 30.1 µM (inactive) | 20.4 µM (inactive) | 50.6 µM (inactive) | 44 µM (inactive) | 78.5 µM (inactive) | 53.8 µM (inactive) | 25.1 µM (inactive) | 26.5 µM (inactive)
2 | O=c1ccn(CC2(CO)CCC2)c(=O)[nH]1 | > 100 µM (inactive) | > 100 µM (inactive) | > 100 µM (inactive) | > 100 µM (inactive) | > 100 µM (inactive) | > 100 µM (inactive) | > 100 µM (inactive) | > 100 µM (inactive) | > 100 µM | > 100 µM (inactive) | > 100 µM (inactive) | > 100 µM (inactive) | > 100 µM (inactive) | > 100 µM (inactive) | > 100 µM (inactive) | > 100 µM (inactive) | > 100 µM (inactive) | > 100 µM (inactive) | > 100 µM (inactive) | > 100 µM (inactive)
3 | Cc1ccc(-c2cc(-c3ccc(Cl)cc3)nc(/N=C3\C(=O)N(CN4CCOCC4)c4ccc(Cl)cc43)n2)cc1 | 22 µM (inactive) | 27.2 µM (inactive) | 21.8 µM (inactive) | 20.2 µM (inactive) | 20.5 µM (inactive) | 15.2 µM (inactive) | 19.1 µM (inactive) | 17.4 µM (inactive) | 23.2 µM | 11.6 µM (inactive) | 20.3 µM (inactive) | 16.3 µM (inactive) | 24.3 µM (inactive) | 30 µM (inactive) | 24.4 µM (inactive) | 15.4 µM (inactive) | 29.3 µM (inactive) | 0.0139 µM (active) | 42.4 µM (inactive) | 33.3 µM (inactive)
4 | CSc1c(C#N)c(O)n(-c2ccc(C)cc2)c(=O)c1C(C)=O | > 100 µM (inactive) | > 100 µM (inactive) | > 100 µM (inactive) | > 100 µM (inactive) | > 100 µM (inactive) | > 100 µM (inactive) | > 100 µM (inactive) | > 100 µM (inactive) | > 100 µM | > 100 µM (inactive) |  | > 100 µM (inactive) | > 100 µM (inactive) | > 100 µM (inactive) | > 100 µM (inactive) | 57.5 µM (inactive) | > 100 µM (inactive) | > 100 µM (inactive) | > 100 µM (inactive) | > 100 µM (inactive)
5 | C=CC(=O)C#CC#CC/C=C\CCCCCCC | > 10.1 µM (inactive) | > 20.6 µM (inactive) | > 20.6 µM (inactive) | > 20.6 µM (inactive) | > 20.6 µM (inactive) | > 20.6 µM (inactive) | > 20.6 µM (inactive) | > 17.6 µM (inactive) | > 20.6 µM | 9.91 µM (inactive) | > 10.1 µM (inactive) | > 20.6 µM (inactive) | > 20.6 µM (inactive) | > 20.6 µM (inactive) | > 20.6 µM (inactive) | 16 µM (inactive) | > 20.6 µM (inactive) | 5.6 µM (inactive) | > 20.6 µM (inactive) | > 20.6 µM (inactive)
6 | COC(=O)c1ccccc1/C=C1\Cc2ccc3c(c2C1=O)CCCC3 | > 100 µM (inactive) | > 100 µM (inactive) | > 100 µM (inactive) | > 100 µM (inactive) | > 100 µM (inactive) | > 100 µM (inactive) | > 100 µM (inactive) | > 100 µM (inactive) | > 100 µM | > 10 µM (inactive) | > 100 µM (inactive) | > 100 µM (inactive) | > 100 µM (inactive) | > 100 µM (inactive) | > 100 µM (inactive) | > 100 µM (inactive) | > 100 µM (inactive) | > 100 µM (inactive) | > 100 µM (inactive) | > 100 µM (inactive)
7 | CCC1NC(=O)C1NC(=O)OC (stereo not drawn) | > 100 µM (inactive) |  | > 100 µM (inactive) | > 100 µM (inactive) | > 100 µM (inactive) | > 100 µM (inactive) | > 100 µM (inactive) | > 100 µM (inactive) | > 100 µM | > 100 µM (inactive) | > 100 µM (inactive) | > 100 µM (inactive) | > 100 µM (inactive) | > 100 µM (inactive) | > 100 µM (inactive) | > 100 µM (inactive) | > 100 µM (inactive) | > 100 µM (inactive) | > 100 µM (inactive) | > 100 µM (inactive)
8 | COc1ccc(-n2c(C)nc3ccc(NC4OCC(O)C(O)C4O)cc3c2=O)cc1 (stereo not drawn) | 34 µM (inactive) and 30.5 µM (inactive) |  | 74.5 µM (inactive) | 42.6 µM (inactive) and 83 µM (inactive) | > 100 µM (inactive) | > 100 µM (inactive) | > 100 µM (inactive) | 18.6 µM (inactive) and 19.4 µM (inactive) | 26.6 µM and 31.6 µM | 26.4 µM (inactive) and 28.9 µM (inactive) | > 100 µM (inactive) | 24 µM (inactive) and 25.6 µM (inactive) | 51.8 µM (inactive) and 41.8 µM (inactive) | > 100 µM (inactive) | > 100 µM (inactive) and 82.8 µM (inactive) | 24.6 µM (inactive) and 22.3 µM (inactive) | > 100 µM (inactive) | 26.5 µM (inactive) and 20 µM (inactive) | 21.8 µM (inactive) and 32.1 µM (inactive) | > 100 µM (inactive)
9 | O=c1cc(N2CCOCC2)[nH]c(=O)n1-c1cccc(Cl)c1 | > 100 µM (inactive) |  | > 100 µM (inactive) | > 100 µM (inactive) | > 100 µM (inactive) | > 100 µM (inactive) | > 100 µM (inactive) | > 100 µM (inactive) | > 100 µM | > 100 µM (inactive) | > 100 µM (inactive) | > 100 µM (inactive) | > 100 µM (inactive) | > 100 µM (inactive) | > 100 µM (inactive) | > 100 µM (inactive) | > 100 µM (inactive) | > 100 µM (inactive) | > 100 µM (inactive) | > 100 µM (inactive)
10 | Cc1ccc2nc3c(=O)[nH]c(=O)nc-3n(C)c2c1C | > 100 µM (inactive) | > 100 µM (inactive) | > 100 µM (inactive) | > 100 µM (inactive) | > 100 µM (inactive) | > 100 µM (inactive) | > 100 µM (inactive) | > 100 µM (inactive) | > 100 µM | > 100 µM (inactive) | > 100 µM (inactive) | > 100 µM (inactive) | 12.1 µM (inactive) | > 100 µM (inactive) | > 100 µM (inactive) | > 100 µM (inactive) | > 100 µM (inactive) | > 100 µM (inactive) | > 100 µM (inactive) | > 100 µM (inactive)
11 | O=S1(=O)CS(=O)(=O)OCCO1 | 10.9 µM (inactive) | 46.1 µM (inactive) | 37.8 µM (inactive) | 46.6 µM (inactive) | 51.1 µM (inactive) | 81.8 µM (inactive) | 46.6 µM (inactive) | 37.7 µM (inactive) | 48.6 µM | 11.2 µM (inactive) | 12.4 µM (inactive) | 63.1 µM (inactive) | 54.3 µM (inactive) | 128 µM (inactive) | 44.2 µM (inactive) | 48.3 µM (inactive) | 52.8 µM (inactive) | 62.5 µM (inactive) | 69 µM (inactive) | 50.5 µM (inactive)
12 | COc1cc2ccc1OCc1cccc(n1)COc1ccc(cc1OC)/C=N\c1ccc(cc1)/N=C\2 | > 100 µM (inactive) | > 100 µM (inactive) | > 100 µM (inactive) | > 100 µM (inactive) | > 100 µM (inactive) | > 100 µM (inactive) | > 100 µM (inactive) | > 100 µM (inactive) | > 100 µM | > 100 µM (inactive) | > 100 µM (inactive) | > 100 µM (inactive) | 54.2 µM (inactive) | > 100 µM (inactive) | > 100 µM (inactive) | > 100 µM (inactive) | > 100 µM (inactive) |  |  | > 100 µM (inactive)
13 | O=Cc1ccc(-c2cccs2)s1 | > 100 µM (inactive) | 60 µM (inactive) | 51.3 µM (inactive) | 42.3 µM (inactive) | > 100 µM (inactive) | 79.4 µM (inactive) | 72.8 µM (inactive) | 39.2 µM (inactive) | > 100 µM | 49.3 µM (inactive) | 67.6 µM (inactive) | 63.5 µM (inactive) | 34.1 µM (inactive) | > 80 µM (inactive) | 66.2 µM (inactive) | > 100 µM (inactive) | 56.4 µM (inactive) | 57.5 µM (inactive) | > 100 µM (inactive) | 6.62 µM (inactive)
14 | COc1ccc(C(=O)c2cc(OC)c(OC)c(OC)c2)cc1OC | 4.98 µM (inactive) | 4.44 µM (inactive) | 5.41 µM (inactive) | 4.04 µM (inactive) | 3.92 µM (inactive) | > 100 µM (inactive) | 2.81 µM (inactive) | 4.94 µM (inactive) | 1.58 µM | 2.67 µM (inactive) | 4.57 µM (inactive) | 3.1 µM (inactive) | 2.7 µM (inactive) | 6.17 µM (inactive) | 0.436 µM (active) | 3.63 µM (inactive) |  | 7.53 µM (inactive) | 5.94 µM (inactive) | 27.2 µM (inactive)
